Columns and labels:
Format in all cases: physicochemical
[1] = Stability constants of the gadolinium complex by potentiometric titration (BEST program)
Source text: Presently, there are two ways for calculating the thermodynamic stability constant of a metal complex by the potentiometric titration. […] The second method is suitable for the metal complex whose disassociation rate is less than 25% at low pH (such as pH 2). Take the metal complex of the present invention for instance, since it is not able to form a complex with the ligand at a pH value around 2, the thermodynamic stability constant thereof must be calculated by the previous method. The equation for the thermodynamic stability constant is defined as follows: [formula] where M represents the metal ion, L represents the ligand, and ML represents the metal complex. […] The thermodynamic stability constants for the metal complexes with CB-TTDA are determined from the titration data with the FORTRAN computer program BEST as shown in Table 2 with the reported thermodynamic stability constants of TTDA and DTPA, which are respectively reported by Y M. Wang et al., Inorganic Chemistry, vol. 44, page 382, 2005 and by P. Caravan et al., Inorganic Chemistry, vol. 44, page 2170, 2001. The conditional stability constant (Kcond) specifies the degree of metal chelation at a given pH and is defined as follows: […] [formula] where LT is the total concentration of the uncomplexed ligand, which is defined by the following equation: […]

[2] = Relaxivity r1 by 20 MHz relaxometer; conditions: 37.0 ± 0.1° C., pH 7.4 ± 0.1
Source text: Mainly, the relaxivity of paramagnetic metal complex is affected by two factors, the inner-sphere and the outer-sphere relaxivities. Due to the existence of inner water molecules of the ligand of the present invention, the relaxivity thereof is mainly affected by the change of the inner-sphere relaxivity rather than the outer-sphere relaxivity (the outer-sphere relaxivity is considered similar to other ligands). The relaxivity of [Gd(CB-TTDA)]^2− is higher than those of [Gd(TTDA)]^2− (Y. M. Wang et al., Inorganic Chemistry, vol. 44, page 382, 2005) and [Gd(DTPA)]^2− (P. Caravan et al., Inorganic Chemistry, vol. 44, page 2170, 2001).

[3] = Kinetic stability of the gadolinium complex toward zinc (II) transmetallation (relaxation rate ratio); conditions: incubation with zinc (II) for three days; phosphate buffer pH 7.4, 2.5 mM ZnCl2, 2.5 mM complex; 20 MHz, 37.0 ± 0.1° C.
Source text: Among Zn^2+, Ca^2+, Cu^2+ and other metal ions, the zinc (II) combines a rather high concentration with high affinity toward poly(amino carboxylate) and may result in the gadolinium complex dissociation in vivo. […] The reciprocal of the longitudinal relaxation time is the water proton paramagnetic longitudinal relaxation rate, R1^P(t), where the ration of R1^P(t)|R1^P(0) represents the stability of the gadolinium complex for Zn^2+. […] Based on the mentioned principle, the kinetic stability of the gadolinium complex for zinc (II) could be measured. […] Laurent et al, Invest. Radiol., vol. 36, page 155, 2001.

## O=C([O-])CN(CCN(CC(=O)[O-])CC1(CN(CC(=O)[O-])CC(=O)[O-])CCC1)CC(=O)[O-].[Gd+3] [[Gd(CB-TTDA)]^2−]
[1]
  calculated conditional stability constant of the gadolinium complex: 15.83
  log KML [GdL]/[Gd][L] (thermodynamic stability constant): 20.28
[2]
  relaxivity r1: 4.12 ± 0.05 mM⁻¹ s⁻¹
[3]
  R1^p (t = 3days)/R1^p (t = 0 days): 47.4%
